Patent publication US20170283408A1, “BENZO-HETEROCYCLIC COMPOUNDS AND THEIR APPLICATIONS” (priority 2014, published 2017)

Key:
PD-L1 [1] = assay: PD-L1 expression on IFN-γ stimulated B16F10 cells (flow cytometry); type: cell-based, murine; conditions: various concentrations, 1 day; FIG. 5
Method: IFN-γ stimulated-monocytes were incubated in the presence of either a DMSO vehicle control, ML-A1-B or ML-A1-C for 1 day. Treated cells were harvested and the PD-L1 molecules were analyzed using flow cytometry. Surface molecule expression is presented as the MFI relative to each day that the cells were treated with the DMSO vehicle control medium. Values are presented as the mean±SEM from 3 independent experiments. White blood cells of test subjects including healthy volunteers recruited from the Taiwan Blood Service Foundation (Taipei, Taiwan) and septic patients were obtained with written informed consents. Human monocytes were then isolated in accordance with procedures described previously (Chen I H et al., Cancer Immunol Immunother (2010) 59, 323-334). Briefly, peripheral blood mononuclear cells (PBMCs) were isolated using Ficoll-Paque Plus (GE Healthcare) gradient centrifugation. The monocytes were further purified by conducting CD14 selection using CD14 MACS microbeads (Miltenyi Biotec). The purity of monocytes confirmed using flow cytometry analysis was approximately 90%. Monocytes were incubated with endotoxin LPS (100 ng/ml) for 72 hours. At the indicated time point, the cells were harvested and the PD-L1 and HLA-DR molecules were analyzed using flow cytometry. […]

[2] = test system: murine B16F10 melanoma cells; assay: MTS cytotoxicity assay, B16F10; type: cell-based; conditions: Mus musculus, B16-F10, B16F10; FIG. 6; read-out: IC50 (MTS assay), B16F10 melanoma cell line
Method: (§1) The B16F10 and human PBMCs were incubated in the presence of various concentrations of ML-A1-B and ML-A1-C compounds for 1 day. The cell cytotoxicity was monitored through MTS assay. Optical density of DMSO control groups was taken as 100% of cell viability. Values are presented as the mean±SEM from 3 independent experiments.
(§2) 5×10^3 of B16F10 cells were seeded into 96-well plates and treated with the following: DMSO control, various concentrations of naphthalimide derived compounds for 2 day. For the MTS assay (Promega), 40 ul of the MTS reagent was added into each well. Cells were incubated at 37° C. for 4 hr. The absorbance was detected at OD490 nm.
(§3) The cytotoxicity of various concentrations of ML-A1-B and ML-A1-C against murine B16F10 melanoma cells and human PBMCs were examined by MTS assay. […] Therapeutic index by MTS assay is about 5.62.

human PBMCs = assay: MTS cytotoxicity assay, human PBMCs; type: cell-based
Method: as §1, §2, §3

B16F10 lung metastases [3] = assay: Compounds and anti-PD-1 antibody combination therapy in B16F10 lung metastasis model (survival); type: in vivo, C57BL/6 mice; conditions: compound 2 mg/kg daily combined with anti-PD-1 (J43) 5 mg/kg every 3-4 days; C57BL/6
Method: C57BL/6 mice were injected iv with 2×10^5 B16F10 cells on Day0. On Day1, mice were injected ip with either control hamster Ig (CTRL IgG) or hamster anti-mouse-PD-1 (J43) at 5 mg/kg every 3-4 days. For combination therapies, mice were daily injected with 2 mg/kg of ML-C19-A or ML-A1-C combined with anti-mouse PD-1 (5 mg/kg) every 3-4 days. Long-term of survival of treated mice in each of the experimental groups were observed.
To examine whether combination of ML-C19-A or ML-A1-C with anti-PD-1 antibody would prolong mice survival in B16F10 lung metastasis model, mice were injected ip with compounds and anti-PD-1 antibody.

PD-L1 [4] = assay: PD-L1 level in LPS-primed monocyte model (flow cytometry); type: cell-based, human; conditions: for expression level of PD-L1 in LPS-primed monocytes, of that of the control: compound at 10 μM, LPS 100 ng/mL, relative to control
From the text: (§4) White blood cells of test subjects including healthy volunteers recruited from the Taiwan Blood Service Foundation (Taipei, Taiwan) and septic patients were obtained with written informed consents. Human monocytes were then isolated in accordance with procedures described previously (Chen I H et al., Cancer Immunol Immunother (2010) 59, 323-334). Briefly, peripheral blood mononuclear cells (PBMCs) were isolated using Ficoll-Paque Plus (GE Healthcare) gradient centrifugation. The monocytes were further purified by conducting CD14 selection using CD14 MACS microbeads (Miltenyi Biotec). The purity of monocytes confirmed using flow cytometry analysis was approximately 90%. Monocytes were incubated with endotoxin LPS (100 ng/ml) for 72 hours. At the indicated time point, the cells were harvested and the PD-L1 and HLA-DR molecules were analyzed using flow cytometry. Murine B16F10 cell lines maintained in Dulbecco's modified Eagle's medium (DMEM), 10% heat-inactivated fetal calf serum, 2 mM L-glutamine, penicillin (100 U/ml), and streptomycin (100 μg/ml) at 37 C in a 5% CO2 humidified atmosphere.
(§5) To analyze the surface phenotype of the monocytes, the cells were incubated for 30 minutes on ice in the dark with the following mAbs diluted in phosphate-buffered saline (PBS) containing 1% BSA: PD-L1-FITC, HLA-DR-PE, CD14-PerCP (BD Biosciences). Monocytes were gated based on their FSC/SSC properties. Fluorescence was detected using FACS Calibur, and data analysis was performed using FCS Express version 3 (De Novo Software).
In this example, an LPS-primed monocyte model was established and then used to evaluate the function of the compound of example 1. Specifically, monocytes isolated from healthy subjects according to procedures described in the “Materials and methods” section were incubated with LPS (100 ng/mL) for 72 hours, then respective levels of PD-L1 and HLA-DR were determined. Results are illustrated in FIG. 2.
The effects of the compounds of example 1 were tested in the LPS-primed monocyte model of example 3.1, in which various concentrations of ML-C19-A, ML-C19-B, ML-A1-B, and ML-A1-C were incubated with LPS-primed monocytes of example 3.1; results are illustrated in FIGS. 3 and 4.

[5] = In vivo toxic study (body weight); conditions: 20 mg/kg ip daily; C57BL/6
Method: C57BL/6 mice were ip injected daily with 20 mg/kg of ML-A1-B, or ML-A1-C, or 5% DMSO vehicle control, and their body weight were measured on the indicated days.
To investigate toxicity of ML-A1-B and ML-A1-C, mice were injected ip daily with 20 mg/kg of ML-A1-B or ML-A1-C or 5% DMSO vehicle control.

HLA-DR = HLA-DR level in LPS-primed monocyte model (flow cytometry); type: cell-based, human; conditions: LPS-primed monocytes; FIG. 3
From the text: as §4, §5
In this example, an LPS-primed monocyte model was established and then used to evaluate the function of the compound of example 1. Specifically, monocytes isolated from healthy subjects according to procedures described in the “Materials and methods” section were incubated with LPS (100 ng/mL) for 72 hours, then respective levels of PD-L1 and HLA-DR were determined. Results are illustrated in FIG. 2. […]

B16F10 lung metastases [6] = assay: B16F10 lung metastasis model in NOD/SCID mice; type: in vivo; conditions: 2 mg/kg, day 14, n=5/group
Method: (§6) NOD/SCID (n=5/group) mice were injected i.v. with 2×10^5 of the B16F10 tumor cells. Two mg/kg of ML-A1-B, ML-A1-C, or with DMSO vehicle control were used. The animals were killed on day 14 and tumor nodules in the lungs were counted. Data are presented as the number of each individual mouse and the mean of each group. Representative photographs of the lung of each group are also shown (left).
(§7) C57BL/6 mice (6 to 8 weeks old) and NOD/SCID mice (6 to 8 weeks old) were purchased from the National Laboratory Animal Center (Taipei, Taiwan). All animal experiments were performed under specific pathogen-free conditions and in accordance with guidelines approved by the Animal Care and Usage Committee of Mackay memorial hospital (Taipei, Taiwan).
To generate lung metastases, mice were injected intravenously with 2×10^5 B16F10 cells, a dose consistently yielding lung metastases in 100% of animals. 2 mg/kg compounds and 5% DMSO vehicle control were given ip daily to test the effect of compounds on tumor metastatsis. The amount of tumor seeding was counted as total numbers of black nodules presented in the lungs under microscopy. […]

B16F10 lung metastases [7] = assay: B16F10 lung metastasis model in C57BL/6 mice; type: in vivo; conditions: 2 mg/kg ip daily, day 14, n=11/group
Method: as §6, with “C57BL/6 (n=11/group)” for “NOD/SCID (n=5/group)”
as §7
To generate lung metastases, mice were injected intravenously with 2×10^5 B16F10 cells, a dose consistently yielding lung metastases in 100% of animals. 2 mg/kg compounds and 5% DMSO vehicle control were given ip daily to test the effect of compounds on tumor metastatsis. The amount of tumor seeding was counted as total numbers of black nodules presented in the lungs under microscopy.
To examine the therapeutic effect of ML-A1-B and ML-A1-C against pre-established B16F10 lung metastases, mice were iv injected with 2×10^5 B16F10 tumor cells and treated with, per mouse, 2 mg/kg of ML-A1-B, ML-A1-C, or with DMSO vehicle control.

SMILES	PD-L1 on IFN-γ stimulated murine B16F10 melanoma cell line (PD-L1 [1])	IC50 [2]	IC50 (human PBMCs; Homo sapiens, PBMC, human PBMCs, FIG. 6)	Therapeutic index by MTS assay (human PBMCs; ratio of PBMC IC50 to B16F10 IC50)	overall survival (B16F10 lung metastases [3])	expression level of PD-L1 in LPS-primed monocytes, of that of the control (PD-L1 [4])	body weight of the mice [5]	visible sign of toxicity [5]	levels of HLA-DR expression (HLA-DR)	lung metastasis in immune deficient NOD/SCID mice (B16F10 lung metastases [6])	number of lung metastases (lung nodules), mean (B16F10 lung metastases [7])	number of lung metastases (lung nodules), range (B16F10 lung metastases [7])	reduction in PD-L1 level as compared with that of the control (PD-L1 [4]; LPS-primed monocytes, FIG. 3)
CN(C)CCN1C(=O)c2cccc3c(-c4nc5ccccc5s4)ccc(c23)C1=O [ML-A1-C, 6-(Benzo[d]thiazol-2-yl)-2-(2-(dimethylamino)ethyl)-1H-benzo[de]isoquinoline-1,3(2H)-dione]	significantly suppresses PD-L1	7.8 ± 0.05 µM	48.3 ± 0.14 µM	about 5.62	an increase in overall survival	~50.8%	do not significantly reduce the body weight	no visible sign of toxicity	capable of altering the levels of HLA-DR expression	failed to inhibit lung metastasis	30	3-59	–
CN(C)CCN1C(=O)c2cccc3c(-c4nc5ccccc5o4)ccc(c23)C1=O [ML-A1-B, 6-(Benzo[d]oxazol-2-yl)-2-(2-(dimethylamino)ethyl)-1H-benzo[de]isoquinoline-1,3(2H)-dione]	significantly suppresses PD-L1	–	–	–	–	~9.4%	do not significantly reduce the body weight	no visible sign of toxicity	capable of altering the levels of HLA-DR expression	failed to inhibit lung metastasis	41	2-90	–
NS(=O)(=O)c1ccc(N2C(=O)c3cccc4c(Br)ccc(c34)C2=O)cc1 [ML-C19-B, 4-(6-bromo-1,3-dioxo-1H-benzo[de]isoquinolin-2(3H)-yl)benzene-sulfonamide]	–	–	–	–	–	–	–	–	capable of altering the levels of HLA-DR expression	–	–	–	20%
NS(=O)(=O)c1ccc(N2C(=O)c3cccc4cccc(c34)C2=O)cc1 [ML-C19-A]	–	–	–	–	an increase in overall survival	about 37.5%	–	–	–	–	–	–	–
